As a reminder, the solubility is how much of the substance goes into solution per volume.

Drawing on patent US20070299083A1, “6-Methoxy-8-[4-(1-(5-fluoro)-quinolin-8-yl-piperidin-4-yl)-piperazin-1-yl]-quinoline hydrochloric acid salts” (Wyeth, priority 2006, published 2007), this text covers solubility for one compound.

This data set is described as follows: solubility in aqueous media. Type of data set: physicochemical. The settings on record: even in the presence of surfactants.

As to `COc1cc(N2CCN(C3CCN(c4ccc(F)c5cccnc45)CC3)CC2)c2ncccc2c1` [free base, 6-methoxy-8-[4-(1-(5-fluoro)-quinolin-8-yl-piperidin-4-yl)-piperazin-1-yl]-quinoline], the solubility was approximately 0.4 µg/mL.
